For 6 molecules, IC50 and Activity results are on record in ChEMBL document CHEMBL4184144, “Design, synthesis and biological evaluation of fucose-truncated monosaccharide analogues of ipomoeassin F” (Bioorg Med Chem Lett, 2017).

Activity calls are given as the source filed them. The rule behind the calls is not given here.

Assay type in all cases: functional, cell-based
The subject of experiment [1] is MCF7. In words: Antiproliferative activity against human MCF7 cells after 72 hrs by MTT assay. Particulars: MCF7, 72 h. On the technique in general: Tetrazolium assays rely on reduction of a dye to a coloured formazan, in cell work by metabolically active cells.
Experiment [2] concerns Jurkat. Briefly: Antiproliferative activity against human Jurkat cells.
Experiment [3] deals with HeLa. Briefly: Antiproliferative activity against human HeLa cells.
The test system of experiment [4] is MDA-MB-231. Briefly: Antiproliferative activity against human MDA-MB-231 cells after 72 hrs by alamarBlue assay. Particulars: MDA-MB-231, 72 h.
Experiment [5] has as its system U-937. In words: Antiproliferative activity against human U937 cells.
Experiment [6] relates to MCF7. In words: Antiproliferative activity against human MCF7 cells at 10 uM after 72 hrs by MTT assay.
The test system of experiment [7] is MDA-MB-231. In words: Antiproliferative activity against human MDA-MB-231 cells at 10 uM after 72 hrs by alamarBlue assay.

In general, IC50 refers to the midpoint of a concentration-inhibition curve. Consider `C/C=C(\C)C(=O)O[C@@H]1[C@@H](O)[C@@H]2O[C@H]3[C@H](O[C@@H](CCCCC)CCCCCCC(=O)CCC(=O)OC[C@@H](O2)[C@H]1OC(=O)/C=C/c1ccccc1)O[C@H](C)[C@H](O)[C@@H]3O`, for which the IC50 was found to be 0.0867 µM in experiment [1]; 0.139 µM in experiment [2]; 0.133 µM in experiment [3]; 0.131 µM in experiment [4]; 0.0725 µM in experiment [5].

Regarding `C/C=C(\C)C(=O)O[C@@H]1[C@@H](O)[C@@H]2O[C@H]3[C@H](O[C@@H](CCCCC)CCCCCCC(=O)CCC(=O)OC[C@@H](O2)[C@H]1OC(=O)/C=C/c1ccccc1)O[C@H](C)[C@H](OC(C)=O)[C@@H]3OC(C)=O`, the IC50 was 0.216 µM in experiment [1]; 0.0826 µM in experiment [2]; 0.138 µM in experiment [3]; 0.0165 µM in experiment [4]; 0.0798 µM in experiment [5].

With `C/C=C(\C)C(=O)O[C@@H]1[C@@H](O)[C@@H]2OCCO[C@@H](CCCCC)CCCCCCC(=O)CCC(=O)OC[C@@H](O2)[C@H]1OC(=O)/C=C/c1ccccc1`, the outcome in experiment [6] and in experiment [7] was inactive.

As to `C/C=C(\C)C(=O)O[C@@H]1[C@@H](O)[C@@H]2O[C@@H](CCCCC)CCCCCCC(=O)CCC(=O)OC[C@@H](O2)[C@H]1OC(=O)/C=C/c1ccccc1`, the result in experiment [6] and in experiment [7] was inactive.

Regarding `C/C=C(\C)C(=O)O[C@H]1[C@@H]2O[C@@H](CCCCC)CCCCCCC(=O)CCC(=O)OC[C@@H](O2)[C@@H](O)[C@@H]1OC(=O)/C=C/c1ccccc1`, the outcome in experiment [6] and in experiment [7] was inactive.

Regarding `C/C=C(\C)C(=O)O[C@@H]1[C@@H](O)[C@@H]2O[C@H]3[C@H](O[C@@H](CCCCC)CCCCCCC(=O)CCC(=O)OC[C@@H](O2)[C@H]1OC(=O)/C=C/c1ccccc1)O[C@H](C)[C@H](OC(C)=O)[C@@H]3O`, the result in experiment [6] and in experiment [7] was Active. Besides, the IC50 in experiment [1] stood at 0.0437 µM; in experiment [2] it was 0.0061 µM; in experiment [3] it was 0.0164 µM; in experiment [4], 0.0065 µM; in experiment [5], 0.0054 µM.
